This note sets out measurements from PubChem BioAssay (NCI).

What all share (test): DTP human tumour cell line panel, 48 h
The test system of experiment [1] is SF-295 CNS.
The test system of experiment [2] is UO-31 renal.
The test system of experiment [3] is K-562 leukemia.
Experiment [4] deals with OVCAR-4 ovarian.
Experiment [5] concerns LOX IMVI melanoma.
In experiment [6] the test system is 786-0 renal.
Experiment [7] concerns RXF 393 renal.
The test system of experiment [8] is ACHN renal.
In experiment [9] the test system is OVCAR-8 ovarian.
Experiment [10] deals with RPMI-8226 leukemia.

In general, TGI refers to the concentration at which net growth stops. Read a high TGI as less potent growth arrest. The GI50 is the concentration giving 50% growth inhibition.

SMILES strings stand for the structures. Where “and” joins values, the source holds several entries; their conditions need not be identical. Equal entries are not always repeated.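 Compound exposure: 48 hours, 5 concentrations, 96-well plates. The concentration for 50% growth inhibition is given as GI50. The concentration for full growth arrest is given as TGI.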 Numbered stars: 1 amine (or outer) side, 2 acyl side, 3 side chain; on linkers, the order of the positions; unused ones are H or OH. Bridge positions count the residues as written; N and C are the ends. Square brackets hold non-standard residues; d marks the D form. Peptide text beside a SMILES is read from it. I, II: the chains in the order shown. Actinocin(1to9) = Cc1c2oc3c(C)ccc(C(=O)[*:2])c3nc-2c(C(=O)[*:1])c(N)c1=O; NMeV = CN[CH](C(=O)O)C(C)C; Sar = CNCC(=O)O

For the compound `CC(C)[Si](OC1=CCC[C@H]2NC(=O)[C@@H](Cc3ccc([N+](=O)[O-])cc3)[C@@]12C)(C(C)C)C(C)C`, the concentration for total growth inhibition (TGI) in [1] turned out to be 16.9 µM; in experiment [2], 26.4 µM; in [3], 13.7 µM; in experiment [4], 17.1 µM; in experiment [5], 15.8 µM; in experiment [6] it was 17.8 µM. For the same compound, the results for the TGI in [7], in [8] and in experiment [9] were 4.72 µM, 4.28 µM and 24.4 µM, respectively.

In the case of `COc1cccc(-c2cc(=O)c3cc(N4CCCC4)ccc3[nH]2)c1`, the total growth inhibition concentration (TGI) is < 0.001 µM in experiment [1]; 2.44 µM in [10]; > 10 µM in [2]; > 8.09 µM in [3]; > 10 µM in [4]; 0.00131 µM in experiment [5]. The total growth inhibition concentration (TGI) in experiment [6] was > 10 µM; in [8] it was > 10 µM; in experiment [9], 0.00128 µM.

On to `O=c1[nH]c(=S)c2[nH]c(=O)n(-c3ccccc3)c2[nH]1`, for which the TGI in experiment [1], in experiment [2], in experiment [3], in [4], in experiment [5] and in [6] was > 100 µM throughout. Also, the TGI in experiment [7], in experiment [8] and in experiment [9] was > 100 µM in each case.

With `Cn1c2c(c3c(=O)[nH]ncc31)CCCc1ccccc1-2`, the TGI in [1] was > 100 µM; in [10], 40.2 µM; in experiment [2], 53.1 µM; in experiment [3] it was > 100 µM; in [4], > 100 µM; in experiment [5], 46.1 µM. Also, the TGI in experiment [6] was > 100 µM; in experiment [8] it was 98.9 µM; in [9] it was 83.5 µM.

Take `CCC12C=CCN3CCC4(C(=C(C(=O)OC)C1)Nc1ccccc14)[C@H]32` (some centres not stated): the concentration for total growth inhibition (TGI) in experiment [1] was 92.6 µM; in experiment [2], > 100 µM; in experiment [3], 52.5 µM; in experiment [4], > 100 µM; in experiment [5], 53.4 µM; in [6], 82 µM. Also, the TGI in experiment [7] was 56.7 µM; in experiment [8], > 100 µM.

For `NC1=CN(Cc2ccccc2)C2=N/C(=C\c3ccco3)C(=O)N12`, the total growth inhibition concentration (TGI) in experiment [1], in experiment [2], in experiment [3], in experiment [4], in experiment [5] and in experiment [6] was > 100 µM throughout. Further, the TGI in experiment [7], in experiment [8] and in experiment [9] was > 100 µM throughout.

For `CCN1CCC(O)(/C=C/c2ccc(Cl)cc2)C(C(=O)/C=C/c2ccc(Cl)cc2)C1` (configuration not stated), the TGI is 60.3 µM in experiment [1]; > 100 µM in [2]; > 100 µM in experiment [3]; 96 µM in [4]; 32.4 µM in experiment [5]; 43.3 µM in [6]. Further, the TGI was > 100 µM in experiment [8] and 61.3 µM in [9].

Regarding `CCCC(=O)OC1=C(c2ccccc2)Sc2ccccc2-n2cccc21`, the TGI in experiment [1], in [10], in experiment [3], in experiment [4], in [5] and in experiment [6] was > 10 µM throughout. The TGI in [7] and in experiment [9] was > 10 µM each time.

For `CCOC(=O)c1c(CN2CCOCC2)n(Cc2ccccc2)c2c1cc(O)c1nc(C)c(C)nc12`, the TGI in [1], in experiment [10], in experiment [2], in experiment [3], in experiment [4] and in experiment [5] was > 100 µM throughout. In addition, the TGI is 68.7 µM in experiment [6], > 100 µM in experiment [8] and 53.4 µM in experiment [9].

With `C#CC1(O)CC(c2ccccc2)N(C)C(c2ccccc2)C1` (configuration not stated), the total growth inhibition concentration (TGI) in experiment [1], in [2], in experiment [3], in experiment [4], in experiment [5] and in experiment [6] was > 100 µM each time. In addition, the TGI in experiment [7], in experiment [8] and in experiment [9] was > 100 µM in each case.

On to `CCO/N=C(/CC)c1ccc(Br)s1`, for which the TGI in [1], in [2], in experiment [3], in experiment [4], in experiment [5] and in experiment [6] was > 100 µM throughout. For the same compound, the concentration for total growth inhibition (TGI) in experiment [7], in experiment [8] and in [9] was > 100 µM in each case.

On to `N=c1oc2ccc(Cl)cc2cc1C(=O)NC1CCCCC1`, for which the concentration for total growth inhibition (TGI) in experiment [10], in experiment [3], in [4], in experiment [5], in [6] and in [7] was > 100 µM throughout. The total growth inhibition concentration (TGI) in [8] and in [9] was > 100 µM throughout.

In the case of `NC(=O)N=Nc1c2ccccc2n2[nH]ccc12`, the TGI was > 100 µM in experiment [1]; > 100 µM in experiment [3]; > 100 µM in [4]; > 100 µM in [5]; > 100 µM in experiment [6]; 59.4 µM in [7]. Also, the TGI in [8] and in experiment [9] was > 100 µM throughout.

On to `O=c1c2cc([N+](=O)[O-])cnc2sn1-c1ccc(Br)cc1`, for which the TGI in experiment [1] is 47.1 µM; in [10], > 100 µM; in [2] it was > 100 µM; in experiment [4] it was 82 µM; in experiment [5], 52.5 µM; in experiment [6], > 100 µM. For the same compound, the TGI in experiment [8] and in experiment [9] was > 100 µM in each case.

Regarding `COc1ccc(-c2c(C#N)cnc(N)c2-c2nc3cc(C)c(C)cc3[nH]2)cc1`, the GI50 in experiment [1] was 6.41 µM; in experiment [10] it was 32.5 µM; in experiment [3] it was 6.03 µM; in experiment [4], 22.5 µM; in [5], 5.74 µM; in [7], 5.68 µM. Besides, the GI50 in [8] was 39.8 µM; in [9] it was 5.2 µM. In addition, the concentration for total growth inhibition (TGI) in [1] was 23.4 µM; in experiment [10] it was > 100 µM; in experiment [3], > 100 µM; in [4], > 100 µM; in [5], > 100 µM; in [7] it was 20.4 µM. In addition, the concentration for total growth inhibition (TGI) in experiment [8] is > 100 µM; in experiment [9], 26.8 µM.

Consider `NCCSc1nc(N)c2ncn(C3OC(CO)C(O)C3O)c2n1` (configuration not stated), for which the concentration for total growth inhibition (TGI) in [1], in experiment [10], in experiment [2], in [3], in [4] and in [5] was > 100 µM each time. Moreover, the TGI in experiment [6], in experiment [8] and in experiment [9] was > 100 µM in each case.

With `CC1CC/C(=C\c2ccc(F)cc2)C2=C1C(c1ccc(F)cc1)n1c(s/c(=C\c3ccc(Cl)cc3)c1=O)=N2` (configuration not stated), the total growth inhibition concentration (TGI) in [10], in [3], in [4], in experiment [5], in [6] and in experiment [7] was > 100 µM in each case. For the same compound, the TGI in experiment [8] and in experiment [9] was > 100 µM in each case.

Take `Nc1ccc2c(c1)S(=O)(=O)c1cc(N)ccc1-2`: the TGI in [1], in experiment [2], in experiment [3], in [4], in [5] and in experiment [6] was > 100 µM throughout. Besides, the total growth inhibition concentration (TGI) in [7], in experiment [8] and in [9] was > 100 µM each time.

With `Cc1cccc(/C=C2\CCCCCC2=O)c1`, the TGI in experiment [1], in experiment [10], in experiment [2], in [3], in experiment [4] and in experiment [5] was > 100 µM in each case. Besides, the TGI in experiment [6] and in [8] was > 100 µM each time.

`CCOc1ccccc1NC(=O)C(=O)c1c(O)c2ccc(O)cc2oc1=O`: the TGI in [1], in [2], in experiment [3], in experiment [4], in [5] and in [6] was > 100 µM each time. The TGI in experiment [7], in experiment [8] and in experiment [9] was > 100 µM in each case.

Turning to `CC(=O)Oc1cc2c(n(C)c1=O)CCC2`, the TGI in [1], in experiment [2], in experiment [3], in experiment [4], in experiment [5] and in experiment [6] was > 100 µM each time. In addition, the TGI in [8] and in [9] was > 100 µM each time.

Take `Cc1cc2nc3c(C#N)c4c(c(Nc5ccc(Cl)cc5)n3c2cc1C)CCC4`: the TGI in [1] is > 100 µM; in experiment [10] it was 32.7 µM; in experiment [4], > 100 µM; in experiment [5] it was 32.8 µM; in experiment [6], 29.3 µM; in [7], 33.8 µM. Further, the TGI in experiment [8] stood at 43.3 µM; in experiment [9], 35.5 µM.

With `CCCC(=O)Oc1cc(OC(=O)CCC)c2c(C)cc(=O)oc2c1`, the concentration for total growth inhibition (TGI) in [1], in [10], in experiment [2], in experiment [3], in [4] and in [5] was > 100 µM throughout. The total growth inhibition concentration (TGI) in experiment [6], in experiment [8] and in [9] was > 100 µM throughout.

For `CCC(C)C1NC(=O)C(NC(=O)c2c3nc4c(C(=O)NC5C(=O)NC(C(C)C)C(=O)N6CCCC6C(=O)N(C)CC(=O)N(C)C(C(C)C)C(=O)OC5C)ccc(C)c4oc-3c(C)c(=O)c2N)C(C)OC(=O)C(C(C)C)N(C)C(=O)CN(C)C(=O)C2CCCN2C1=O` (configuration not stated) (I: TIP[Sar][NMeV] / II: TVP[Sar][NMeV]; ester I:1-I:C, II:1-II:C; linker I:N-II:N via Actinocin(1to9); configuration not given here), the TGI was 0.0323 µM in [10]; 0.105 µM in experiment [3]; 0.739 µM in experiment [4]; 0.141 µM and 0.669 µM in experiment [6]; 0.0102 µM in experiment [7]; 0.0377 µM and 0.0261 µM in experiment [8].

Regarding `COC(=O)/C=C/N1CC1`, the concentration for total growth inhibition (TGI) in experiment [1], in experiment [10], in experiment [3], in experiment [4], in experiment [6] and in experiment [8] was > 10 µM each time. Further, the TGI in experiment [9] is > 10 µM.

For `O=C(NC(Cc1ccccc1)P(=O)(O)c1ccccc1)OCc1ccccc1` (configuration not stated), the TGI in [1], in experiment [10], in experiment [2], in [3], in experiment [4] and in experiment [5] was > 100 µM throughout. In addition, the TGI in [6], in [8] and in [9] was > 100 µM in each case.

For `OCC1(CNc2cc(Cl)ncn2)CCC1`, the total growth inhibition concentration (TGI) in [1], in experiment [10], in experiment [2], in experiment [3], in experiment [4] and in [5] was > 100 µM each time. The TGI in experiment [6], in [8] and in [9] was > 100 µM throughout.

Consider `Cc1ccc(NCc2nnc3c(-c4ccccc4)nc4ccccc4n23)cc1`, for which the total growth inhibition concentration (TGI) in experiment [1] was > 100 µM; in experiment [3] it was > 100 µM; in experiment [4], > 100 µM; in experiment [5], 71.1 µM; in [6] it was > 100 µM; in experiment [7] it was > 100 µM. For the same compound, the TGI in [8] and in [9] was > 100 µM each time.

Regarding `CC1(C)O[C@@H](CP(c2ccc3ccccc3c2)c2ccc3ccccc3c2)[C@H](CP(c2ccc3ccccc3c2)c2ccc3ccccc3c2)O1`, the total growth inhibition concentration (TGI) in experiment [1], in experiment [2], in experiment [3], in experiment [4], in experiment [5] and in [6] was > 100 µM throughout. Also, the TGI in experiment [7], in experiment [8] and in experiment [9] was > 100 µM in each case.
